The structures appear in SMILES notation.

The IC50 is the concentration that gives 50% inhibition.

A short description of assay [1]: Selectivity index, ratio of IC50 for purified human red blood cell PP2A (unknown origin) to IC50 for purified rabbit skeletal muscle PP1.
The subject of assay [2] is MCF7. Nature of the assay: Cytotoxicity against human MCF7 cells by fluorescent Calcein-AM assay. The class given is functional, cell-based.
Assay [3] can be described thus: Cytotoxicity against human DU145 cells by fluorescent Calcein-AM assay. The class given is functional, cell-based. The conditions noted are these: du-145.
Assay [4] is described as follows: Cytotoxicity against human HCT116 cells by fluorescent Calcein-AM assay. The assay is classed as functional, cell-based. The conditions noted are these: hct-116.
Assay [5] has as its target Serine/threonine-protein phosphatase PP1-alpha catalytic subunit (Oryctolagus cuniculus, UniProt P62139). Nature of the assay: Inhibition of purified rabbit skeletal muscle protein phosphatase 1 using DiFMUP substrate incubated for 30 mins.

Chain of Serine/threonine-protein phosphatase PP1-alpha catalytic subunit (P62139 whole entry): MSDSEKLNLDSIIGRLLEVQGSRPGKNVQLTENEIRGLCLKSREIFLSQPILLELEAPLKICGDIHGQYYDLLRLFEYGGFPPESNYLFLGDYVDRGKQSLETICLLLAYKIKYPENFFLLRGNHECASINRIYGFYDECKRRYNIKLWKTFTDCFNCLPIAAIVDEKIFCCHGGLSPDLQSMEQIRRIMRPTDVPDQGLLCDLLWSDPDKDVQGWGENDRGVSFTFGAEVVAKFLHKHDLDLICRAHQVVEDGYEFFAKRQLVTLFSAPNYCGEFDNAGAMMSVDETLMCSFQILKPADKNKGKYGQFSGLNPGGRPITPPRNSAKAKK

As for `CCC(/C=C/C(=O)O)=C\[C@H](O)C[C@H](C)C[C@@H](C)CC[C@H](O)[C@H](C)C(=O)C[C@@H](O)[C@H](C)[C@@H](C)OC(=O)C[C@@H](O)C1=C(C)C(=O)OC1=O`, in assay [1], the Ratio IC50 turned out to be 3.8.

On to `CCC(/C=C/C(=O)O)=C\CC[C@H](C)C[C@@H](C)CC[C@H](O)[C@H](C)C(=O)C[C@@H](O)[C@H](C)[C@@H](C)OC(=O)C[C@@H](O)C1=C(C)C(=O)OC1=O`, for which the IC50 result in assay [2], in assay [3] and in assay [4] was “Not Active” each time. In assay [1], the Ratio IC50 was determined as 4.

Consider `CCC(/C=C/C(=O)O)=C\C(=O)C[C@H](C)C[C@@H](C)CC[C@H](O)[C@H](C)C(=O)C[C@@H](O)[C@H](C)[C@@H](C)OC(=O)C[C@@H](O)C1=C(C)C(=O)OC1=O`, for which half-maximal inhibition in assay [5] (IC50) required 28 µM.

`CCC(/C=C/C(=O)O)=C\[C@@H](O)C[C@H](C)C[C@@H](C)CC[C@H](O)[C@H](C)C(=O)C[C@@H](O)[C@H](C)[C@@H](C)OC(=O)C[C@@H](O)C1=C(C)C(=O)OC1=O`: the IC50 result in assay [2], in assay [3] and in assay [4] was “Not Active” throughout. The Ratio IC50 in assay [1] is 4.5.

Regarding `CC/C(=C\CC[C@H](C)C[C@@H](C)CC[C@H](O)[C@H](C)C(=O)C[C@@H](O)[C@H](C)[C@@H](C)OC(=O)C[C@@H](O)C1=C(C)C(=O)OC1=O)C(O)CC(=O)O` (some centres undefined), the half-inhibitory concentration (IC50) entry in assay [2], in assay [3] and in assay [4] was “Not Active” in each case. In addition, the Ratio IC50 in assay [1] amounted to 3.8.

These data come from ChEMBL document CHEMBL3714768 (2012).
